Assay results: patent US20130143942A1, “METHODS OF CONTROLLING NEONICOTINOID RESISTANT APHIDS” (SYNGENTA CROP PROTECTION LLC, priority 2010, published 2013)

Key:
[1] = tested on: neonicotinoid insecticide resistant aphid strain; assay: leaf disc spray bioassay, aphid mortality 72 hours after treatment, resistant strain; type: in vivo; settings: mixed age aphids on chinese cabbage leaf discs, sprayed in Potter Tower, resistant strain collected from peach orchard, Avignon region, 2009
Procedure: (§1) The following bioassay methodology was utilized to generate the data included in the table:
(§2) 5 cm leaf discs were taken from fully expanded chinese cabbage leaves and placed with the underside facing upwards onto water agar in 5 cm Petri dishes. The leaf discs are infested with between 30 and 40 mixed age aphids 24 hours prior to insecticide treatment. The leaf surface is sprayed with the appropriate test solutions in a Burkhard Potter Tower at an approximate water volume of 450 l/ha. Test containers are stored at 21° C., 60% RH and 16:8 light/dark. Aphids were assessed for mortality 72 hours after treatment.

[2] = tested on: neonicotinoid insecticide susceptible strain 4106A; assay: leaf disc spray bioassay, aphid mortality 72 hours after treatment, susceptible strain; type: in vivo; settings: mixed age aphids on chinese cabbage leaf discs, sprayed in Potter Tower, susceptible strain 4106A (Rothamsted Research)
Procedure: as §1, §2

Compound: CCOC(=O)OC1=C(c2cc(C)ccc2C)C(=O)N[C@]12CC[C@@H](OC)CC2 [sprirotetramat, cis-3-(2,5-dimethylphenyl)-8-methoxy-2-oxo-1-azaspiro[4.5]dec-3-en-4-yl ethyl carbonate]
- LC50 with 95% confidence limit, resistant strain [1]: 1.58 (1.14-2.23) ppm
- LC50 with 95% confidence limit, susceptible strain [2]: 0.88 (0.60-1.22) ppm
